# ChEMBL document CHEMBL1142315, “In silico screening and biological evaluation of inhibitors of Src-SH3 domain interaction with a proline-rich ligand” (Bioorg Med Chem Lett, 2008)
# Active and inactive are the calls of the source. No cut-off for these calls is given here.
# Assays:
# [1] = biological target: Proto-oncogene tyrosine-protein kinase Src (Homo sapiens) (UniProt P12931); assay: Inhibition of interaction between human Src-SH3 domain and PRP2 at 800 uM by fluorescence polarization technique
# [2] = biological target: Proto-oncogene tyrosine-protein kinase Src (Homo sapiens) (UniProt P12931); assay: Inhibition of interaction between human Src-SH3 domain and PRP2 at 100 uM by fluorescence polarization technique
# Proto-oncogene tyrosine-protein kinase Src (Homo sapiens), sequence (P12931 2-536 limits assumed): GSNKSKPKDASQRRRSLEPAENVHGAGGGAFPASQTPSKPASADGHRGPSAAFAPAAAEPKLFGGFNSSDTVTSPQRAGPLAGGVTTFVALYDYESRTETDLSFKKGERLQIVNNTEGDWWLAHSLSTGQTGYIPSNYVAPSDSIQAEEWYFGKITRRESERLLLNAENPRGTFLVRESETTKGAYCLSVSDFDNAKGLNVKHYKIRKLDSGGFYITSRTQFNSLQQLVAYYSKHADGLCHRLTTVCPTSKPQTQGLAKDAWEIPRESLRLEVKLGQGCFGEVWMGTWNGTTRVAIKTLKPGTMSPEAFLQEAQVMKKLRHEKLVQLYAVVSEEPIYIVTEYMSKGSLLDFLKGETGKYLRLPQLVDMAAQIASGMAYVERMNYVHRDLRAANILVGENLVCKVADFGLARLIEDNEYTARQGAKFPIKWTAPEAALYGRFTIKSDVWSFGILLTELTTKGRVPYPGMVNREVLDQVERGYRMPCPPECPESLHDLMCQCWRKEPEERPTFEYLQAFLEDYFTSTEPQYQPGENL
Compound,Activity [1],inhibition [2]
Cc1cc(NCCNc2ccc3c(c2)OCCO3)c2ccc3ccccc3c2n1,Active,–
COc1ccc(NCCNc2cc(C)nc3c2ccc2ccccc23)cc1OC,Active,22%
